Reference: patent publication US6063778A, “Cephalosporin derivatives and processes for the preparation thereof” (Il-Dong Pharm. Co., Ltd., priority 1995, dated 2000)
In brackets after ≈: the same amount, converted by molar mass. Where two headings read alike, the source gives them in different places.

Columns and labels:
Acute toxicity study = type: in vivo; conditions: in vivo
Protocol: (§1) In order to illustrate usefulness of the compounds of the present invention, acute toxicity test of the compounds synthesized in the above Examples were carried out. Each dose of the compounds dissolved in saline and buffer solution (PH=7.0) was administered by intravenous or subcutaneous injection. Mortalities of the animals was recorded seven days latter.
(§2) .asterisk-pseud. Mouse: Male ICR strain, 4 weeks

[1] = system: Pseudomonas aeruginosa 1771; experiment: MIC by agar dilution, in vitro activity test; type: cell-based; conditions: 37° C., 18 to 20 hours, read-out: Minimal Inhibitory Concentration (MIC)
Protocol: These MIC values were determined by agar dilution method: that is, two-fold dilutions of each of the test compounds were made and dispersed in a Mueller-Hinton Broth medium.

[2] = system: Staphylococcus aureus, Escherichia coli and Pseudomonas aeruginosa; experiment: MIC by agar dilution, comparison in words; type: cell-based; conditions: against Staphylococcus aureus, vs Cefotaxime
Protocol: (§3) These MIC values were determined by agar dilution method: that is, two-fold dilutions of each of the test compounds were made and dispersed in a Mueller-Hinton Broth medium. Standard test strain which had the 10^6 CFU per ml was inoculated on the medium, and was incubated at 37° C. for 18 to 20 hours.

Escherichia coli TEM = experiment: MIC by agar dilution, in vitro activity test; type: cell-based; conditions: 20 h, read-out: Minimal Inhibitory Concentration (MIC)
Protocol: as §3

Escherichia coli 1507E = experiment: MIC by agar dilution, in vitro activity test; type: cell-based; conditions: read-out: Minimal Inhibitory Concentration (MIC)
Protocol: as §3

[3] = system: Staphylococcus aureus 285; experiment: MIC by agar dilution, in vitro activity test; type: cell-based; conditions: 37° C., 18 to 20 hours, read-out: Minimal Inhibitory Concentration (MIC)
Protocol: as §3

Escherichia coli 078 = experiment: MIC by agar dilution, in vitro activity test; type: cell-based; conditions: 37° C., 18 to 20 hours, read-out: Minimal Inhibitory Concentration (MIC)
Protocol: as §3

[4] = system: Pseudomonas aeruginosa 1771M; experiment: MIC by agar dilution, in vitro activity test; type: cell-based; conditions: 20 h, read-out: Minimal Inhibitory Concentration (MIC)
Protocol: as §3

[5] = system: Pseudomonas aeruginosa 9027; experiment: MIC by agar dilution, in vitro activity test; type: cell-based; conditions: 37° C., 18 to 20 hours, read-out: Minimal Inhibitory Concentration (MIC)
Protocol: as §3

[6] = system: Klebsiella aerogenes 1082E; experiment: MIC by agar dilution, in vitro activity test; type: cell-based; conditions: 37° C., 18 to 20 hours, read-out: Minimal Inhibitory Concentration (MIC)
Protocol: as §3

Escherichia coli DC 0 = experiment: MIC by agar dilution, in vitro activity test; type: cell-based; conditions: DC0, 37° C., 18 to 20 hours, read-out: Minimal Inhibitory Concentration (MIC)
Protocol: as §3

[7] = system: Streptococcus pyogenes 77A; experiment: MIC by agar dilution, in vitro activity test; type: cell-based; conditions: 37° C., 18 to 20 hours, read-out: Minimal Inhibitory Concentration (MIC)
Protocol: as §3

[8] = system: Staphylococcus aureus SG511; experiment: MIC by agar dilution, in vitro activity test; type: cell-based; conditions: 37° C., 18 to 20 hours, read-out: Minimal Inhibitory Concentration (MIC)
Protocol: as §3

[9] = system: Streptococcus faecium MD 8b; experiment: MIC by agar dilution, in vitro activity test; type: cell-based; conditions: Enterococcus faecium, MD8B, 20 h, read-out: Minimal Inhibitory Concentration (MIC)
Protocol: as §3

[10] = system: Enterobacter cloace 1321E; experiment: MIC by agar dilution, in vitro activity test; type: cell-based; conditions: 37° C., 18 to 20 hours, read-out: Minimal Inhibitory Concentration (MIC)
Protocol: as §3

Escherichia coli DC 2 = experiment: MIC by agar dilution, in vitro activity test; type: cell-based; conditions: DC2, 37° C., 18 to 20 hours, read-out: Minimal Inhibitory Concentration (MIC)
Protocol: as §3

[11] = system: Klebsiella aerogenes 1522E; experiment: MIC by agar dilution, in vitro activity test; type: cell-based; conditions: read-out: Minimal Inhibitory Concentration (MIC)
Protocol: as §3

Enterobacter cloace P99 = experiment: MIC by agar dilution, in vitro activity test; type: cell-based; conditions: P99, 20 h, read-out: Minimal Inhibitory Concentration (MIC)
Protocol: as §3

[12] = system: Staphylococcus aureus 503; experiment: MIC by agar dilution, in vitro activity test; type: cell-based; conditions: 37° C., 18 to 20 hours, read-out: Minimal Inhibitory Concentration (MIC)
Protocol: as §3

[13] = system: Pseudomonas aeruginosa 1592E; experiment: MIC by agar dilution, in vitro activity test; type: cell-based; conditions: 37° C., 18 to 20 hours, read-out: Minimal Inhibitory Concentration (MIC)
Protocol: as §3

Salmonella typhimurium = experiment: MIC by agar dilution, in vitro activity test; type: cell-based; conditions: Salmonella enterica, 37° C., 18 to 20 hours, read-out: Minimal Inhibitory Concentration (MIC)
Protocol: as §3

Mouse = experiment: Acute toxicity study; type: in vivo; conditions: 10080 min
Protocol: as §1, §2

[14] = system: Pseudomonas aeruginosa 9071; experiment: MIC by agar dilution, in vitro activity test; type: cell-based; conditions: 37° C., 18 to 20 hours, read-out: Minimal Inhibitory Concentration (MIC)
Protocol: as §3

[15] = system: Streptococcus pyogenes 71A; experiment: MIC by agar dilution, in vitro activity test; type: cell-based; conditions: 37° C., 18 to 20 hours, read-out: Minimal Inhibitory Concentration (MIC)
Protocol: as §3

[16] = Escherichia coli 1507E, agar dilution, 37° C., 18 to 20 hours
[17] = Klebsiella aerogenes 1522E, agar dilution, 37° C., 18 to 20 hours
[18] = iv, i.v, male ICR mouse, 4 weeks, mortality at seven days, read-out: LD50 i.v
[19] = sc, s.c, male ICR mouse, 4 weeks, mortality at seven days, read-out: LD50 s.c

| Structure (SMILES) | MIC [1] [µg/mL] | MICs compared with Cefotaxime [2] | MIC (Escherichia coli TEM) [µg/mL] | MIC (Escherichia coli 1507E; [16]) [µg/mL] | MIC [3] [µg/mL] | MIC (Escherichia coli 078) [µg/mL] | MIC [4] [µg/mL] | MIC [5] [µg/mL] | MIC [6] [µg/mL] | MIC (Escherichia coli DC 0) [µg/mL] | MIC [7] [µg/mL] | MIC [8] [µg/mL] | MIC [9] [µg/mL] | MIC [10] [µg/mL] | MIC (Escherichia coli DC 2) [µg/mL] | MIC [11, 17] [µg/mL] | MIC (Enterobacter cloace P99) [µg/mL] | MIC [12] [µg/mL] | MIC [13] [µg/mL] | MIC (Salmonella typhimurium) [µg/mL] | also measured |
| --- | --- | --- | --- | --- | --- | --- | --- | --- | --- | --- | --- | --- | --- | --- | --- | --- | --- | --- | --- | --- | --- |
| CC[N+](C)(CC=CC(N)=O)C/C=C/C1=C(C(=O)[O-])N2C(=O)[C@@H](NC(=O)/C(=N\OC)c3csc(N)n3)[C@H]2SC1 (stereo partly drawn) [Example 6, 7β-[(Z)-2-(2-aminothiazol-4-yl)-2-methoxyiminoacetamido]-3-[(E)-3-[(1-carbamoyl-1-propen-3-yl)-3-ethylmethylammonio]-1-propen-1-yl]3-cephem-4-carboxylate] | 3.1 (≈ 5.5 µM) | superior to that of Cefotaxime | 0.05 (≈ 0.0887 µM) | 0.05 (≈ 0.0887 µM) | 0.4 (≈ 0.71 µM) | 0.12 (≈ 0.213 µM) | 0.4 (≈ 0.71 µM) | 6.3 (≈ 11.2 µM) | 3.1 (≈ 5.5 µM) | < 0.006 | 0.012 (≈ 0.0213 µM) | 0.8 (≈ 1.42 µM) | > 100 | 0.025 (≈ 0.0444 µM) | 0.05 (≈ 0.0887 µM) | 0.1 (≈ 0.177 µM) | 1.6 (≈ 2.84 µM) | 0.8 (≈ 1.42 µM) | 3.1 (≈ 5.5 µM) | 0.1 (≈ 0.177 µM) | LD50 at 168 h (Acute toxicity study; mouse, iv, i.v, male ICR mouse, 4 weeks, mortality at seven days, read-out: LD50 i.v): > 3000 mg/kg; LD50 at 168 h (Acute toxicity study; mouse, iv, intravenous routes, read-out: acute toxicity in intravenous routes): > 2000 mg/kg; LD50 at 168 h (Acute toxicity study; mouse, sc, s.c, male ICR mouse, 4 weeks, mortality at seven days, read-out: LD50 s.c): > 3000 mg/kg |
| CC[N+](C)(CC=CC(N)=O)C/C=C/C1=C(C(=O)[O-])N2C(=O)[C@@H](NC(=O)/C(=N\OCCF)c3csc(N)n3)[C@H]2SC1 (stereo partly drawn) [Example 12, 7β-[(Z)-2-(2-aminothiazol-4-yl)-2-fluoroethoxyiminoacetamdo]-3-[(E)-3-[(1-carbamoyl-1-propen-3-yl)-3-ethylmethylammonio]-1-propen-1-yl]3-cephem-4-carboxylate] | 6.3 (≈ 10.6 µM) | superior to that of Cefotaxime | 0.05 (≈ 0.0839 µM) | 0.05 (≈ 0.0839 µM) | 0.8 (≈ 1.34 µM) | 0.025 (≈ 0.042 µM) | 0.8 (≈ 1.34 µM) | 12.5 (≈ 21 µM) | 3.1 (≈ 5.2 µM) | < 0.006 | 0.025 (≈ 0.042 µM) | 0.8 (≈ 1.34 µM) | > 100 | 0.05 (≈ 0.0839 µM) | 0.05 (≈ 0.0839 µM) | 0.1 (≈ 0.168 µM) | 1.6 (≈ 2.69 µM) | 0.8 (≈ 1.34 µM) | 6.3 (≈ 10.6 µM) | 0.4 (≈ 0.672 µM) | acute toxicity in intravenous routes (Mouse): > 2000 mg/kg; acute toxicity in subcutaneous routes (Mouse): > 3000 mg/kg; LD50 at 168 h (Acute toxicity study; [18]): > 2000 mg/kg; LD50 at 168 h (Acute toxicity study; [19]): > 3000 mg/kg |
| Cc1ncsc1C[N+](C)(C)C/C=C/C1=C(C(=O)[O-])N2C(=O)[C@@H](NC(=O)/C(=N\OCCF)c3nsc(N)n3)[C@H]2SC1 [Example 14, 7β-[(Z)-2-(5-amino-1,2,4-thiadiazol-3-yl)-2-fluoroethoxyiminoacetamido]-3-[(E)-3-[(4-methylthiazol-5-yl)-methyldimethylammonio]-1-propen-1-yl]3-cephem-4-carboxylate] | 3.1 (≈ 5.08 µM) | superior to that of Cefotaxime | 0.025 (≈ 0.0409 µM) | – | 0.8 (≈ 1.31 µM) | 0.012 (≈ 0.0196 µM) | 0.4 (≈ 0.655 µM) | – | 3.1 (≈ 5.08 µM) | < 0.006 | – | 0.4 (≈ 0.655 µM) | > 100 | 0.012 (≈ 0.0196 µM) | 0.05 (≈ 0.0819 µM) | – | 0.4 (≈ 0.655 µM) | 0.8 (≈ 1.31 µM) | 3.1 (≈ 5.08 µM) | 0.1 (≈ 0.164 µM) | MIC [14]: 12.5 µg/mL (≈ 20.5 µM); MIC (Escherichia coli 1507E; Escherichia coli, 1507E, 20 h): 0.025 µg/mL (≈ 0.0409 µM); MIC [15]: 0.05 µg/mL (≈ 0.0819 µM); MIC ([11]; Klebsiella aerogenes, 1522E, 20 h): 0.025 µg/mL (≈ 0.0409 µM) |
| CC[N+](C)(CC=CC(N)=O)C/C=C/C1=C(C(=O)[O-])N2C(=O)[C@@H](NC(=O)/C(=N\OCCF)c3nsc(N)n3)[C@H]2SC1 (stereo partly drawn) [Example 15, 7β-[(Z)-2-(5-amino-1,2,4-thiadiazol-3-yl)-2-fluoroethoxyiminoacetamido]-3-[(E)-3-[(1-carbamoyl-1-propen-3-yl)-3-ethylmethylammonio]-1-propen-1-yl]3-cephem-4-carboxylate] | 3.1 (≈ 5.2 µM) | – | 0.05 (≈ 0.0838 µM) | 0.1 (≈ 0.168 µM) | 0.8 (≈ 1.34 µM) | 0.025 (≈ 0.0419 µM) | 0.8 (≈ 1.34 µM) | – | 3.1 (≈ 5.2 µM) | 0.012 (≈ 0.0201 µM) | – | 0.8 (≈ 1.34 µM) | > 100 | 0.05 (≈ 0.0838 µM) | 0.1 (≈ 0.168 µM) | 0.05 (≈ 0.0838 µM) | 0.8 (≈ 1.34 µM) | 0.8 (≈ 1.34 µM) | 3.1 (≈ 5.2 µM) | 0.2 (≈ 0.335 µM) | acute toxicity in intravenous routes (Mouse): > 2000 mg/kg; acute toxicity in subcutaneous routes (Mouse): > 3000 mg/kg; LD50 at 168 h (Acute toxicity study; [18]): > 2000 mg/kg; LD50 at 168 h (Acute toxicity study; [19]): > 3000 mg/kg; MIC [14]: 3.1 µg/mL (≈ 5.2 µM); MIC [15]: 0.025 µg/mL (≈ 0.0419 µM) |
